The target in assay [1] is T1, Tyrosinase (tyrosinase mushroom).
T1 construct: gene PPO3; native mushroom tyrosinase preparation, isoenzyme mixture not resolved; only 'mushroom' given
The assay can be described thus: spectrophotometric dopachrome assay, […] nm. Format: biochemical, Agaricus bisporus. The note with it: L-DOPA, pH 6.8, 37 °C, 10 min preincubation.

In assay [2] the target is AChE (acetylcholinesterase from eel) (Electrophorus electricus, UniProt O42275). The note with it: acetylthiocholine-type substrate (AcI [sic]), DTNB, pH 8.0, 25 °C, 15 min preincubation.
Sequence of AChE (acetylcholinesterase from eel) (O42275 24-633): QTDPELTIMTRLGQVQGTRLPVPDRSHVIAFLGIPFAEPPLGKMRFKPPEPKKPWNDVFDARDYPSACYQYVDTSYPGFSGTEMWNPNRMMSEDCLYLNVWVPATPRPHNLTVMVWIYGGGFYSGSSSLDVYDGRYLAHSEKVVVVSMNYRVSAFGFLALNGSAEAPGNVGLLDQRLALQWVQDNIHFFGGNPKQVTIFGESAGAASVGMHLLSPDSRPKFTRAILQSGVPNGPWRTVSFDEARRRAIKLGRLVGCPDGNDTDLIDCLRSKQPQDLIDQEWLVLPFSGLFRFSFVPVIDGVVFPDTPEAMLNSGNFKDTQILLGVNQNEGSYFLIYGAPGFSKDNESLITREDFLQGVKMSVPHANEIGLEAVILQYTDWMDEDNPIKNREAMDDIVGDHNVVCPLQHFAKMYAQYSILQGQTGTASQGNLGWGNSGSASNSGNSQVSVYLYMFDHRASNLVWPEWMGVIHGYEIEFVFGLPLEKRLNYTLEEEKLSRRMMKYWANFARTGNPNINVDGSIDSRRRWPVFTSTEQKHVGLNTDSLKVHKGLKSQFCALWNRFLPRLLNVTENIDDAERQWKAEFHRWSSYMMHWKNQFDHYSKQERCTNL
Assay [3] has as its target T2, BChE (butyrylcholinesterase from horse serum) (Equus caballus, UniProt P81908).
T2 construct: native enzyme preparation from horse serum
As to the kind of experiment: Ellman assay, […] nm. Format: biochemical. The settings on record: butyrylthiocholine chloride, DTNB, pH 8.0, room conditions, 15 min preincubation. For orientation: In Ellman's method for cholinesterases, released thiocholine reacts with DTNB.

Structures are written as SMILES.

T2 sequence (P81908 whole entry): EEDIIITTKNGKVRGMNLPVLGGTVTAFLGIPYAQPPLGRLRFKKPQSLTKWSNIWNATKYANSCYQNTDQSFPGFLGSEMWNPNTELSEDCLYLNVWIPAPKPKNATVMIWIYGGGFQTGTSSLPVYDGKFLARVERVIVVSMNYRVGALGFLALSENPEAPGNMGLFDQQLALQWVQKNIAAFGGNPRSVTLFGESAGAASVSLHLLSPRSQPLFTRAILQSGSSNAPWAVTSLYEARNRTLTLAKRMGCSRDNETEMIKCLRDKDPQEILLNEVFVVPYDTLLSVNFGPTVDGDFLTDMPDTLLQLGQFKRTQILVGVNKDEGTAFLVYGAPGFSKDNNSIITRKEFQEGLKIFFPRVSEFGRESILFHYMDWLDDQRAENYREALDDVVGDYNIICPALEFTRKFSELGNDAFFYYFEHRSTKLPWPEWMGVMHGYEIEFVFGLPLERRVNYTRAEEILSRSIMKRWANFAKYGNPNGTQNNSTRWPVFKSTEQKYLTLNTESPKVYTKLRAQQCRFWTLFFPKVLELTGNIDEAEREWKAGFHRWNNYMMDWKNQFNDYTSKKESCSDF

As to `COc1cc(C=NNC(=O)c2ccccc2)cc(OC)c1O` [7a, N′-(4-hydroxy-3,5-dimethoxybenzylidene)benzohydrazide], the “Tyrosinase activity (IC50 mM/mL)” value in assay [1] is 88.73 ± 0.26 mM/mL. The “Anticholinesterase Activity / AChE assay (IC50 μM/mL) (IC50 μM/mL)” value (“Anticholinesterase Activity / AChE assay” below) in assay [2] is recorded as 101.04 ± 0.49 μM/mL. The “Anticholinesterase Activity / BChE assay (IC50 μM/mL)” value in assay [3] is 122.04 ± 0.87 μM/mL.

As for `COc1cc(C=NNC(=O)c2ccc(Cl)cc2)cc(OC)c1O` [7c, 4-chloro-N′-(4-hydroxy-3,5-dimethoxybenzylidene)benzohydrazide], the “Tyrosinase activity (IC50 mM/mL)” value in assay [1] turned out to be 70.91 ± 0.24 mM/mL. Also, the “Anticholinesterase Activity / AChE assay” value in assay [2] stood at 82.14 ± 0.56 μM/mL. Further, the “Anticholinesterase Activity / BChE assay (IC50 μM/mL)” value in assay [3] was determined as 102.87 ± 0.48 μM/mL.

As to `COc1cc(C=NNC(=O)c2ccc(C(F)(F)F)cc2)cc(OC)c1O` [7i, N′-(4-hydroxy-3,5-dimethoxybenzylidene)-4-(trifluoromethyl)benzohydrazide], in assay [1], the “Tyrosinase activity (IC50 mM/mL)” value is recorded as 49.73 ± 0.12 mM/mL. For the same compound, the “Anticholinesterase Activity / AChE assay” value in assay [2] was found to be 51.08 ± 0.41 μM/mL. Further, the “Anticholinesterase Activity / BChE assay (IC50 μM/mL)” value in assay [3] is reported as 64.09 ± 0.30 μM/mL.

`COc1cc(C=NNC(=O)c2ccc(Br)cc2)cc(OC)c1O` [7b, 4-bromo-N′-(4-hydroxy-3,5-dimethoxybenzylidene)benzohydrazide]: the “Tyrosinase activity (IC50 mM/mL)” value in assay [1] is reported as 82.08 ± 1.09 mM/mL. Further, the “Anticholinesterase Activity / AChE assay” value in assay [2] came out at 93.00 ± 1.11 μM/mL. Also, the “Anticholinesterase Activity / BChE assay (IC50 μM/mL)” value in assay [3] is reported as 116.82 ± 0.66 μM/mL.

`COc1cc(C=NNC(=O)c2cc(C(F)(F)F)cc(C(F)(F)F)c2)cc(OC)c1O` [7j, N′-(4-hydroxy-3,5-dimethoxybenzylidene)-3,5-bis-(trifluoromethyl)benzohydrazide]: the “Tyrosinase activity (IC50 mM/mL)” value in assay [1] is 40.08 ± 0.86 mM/mL. In addition, in assay [2], the “Anticholinesterase Activity / AChE assay” value stood at 44.83 ± 0.12 μM/mL. The “Anticholinesterase Activity / BChE assay (IC50 μM/mL)” value in assay [3] was 57.30 ± 0.87 μM/mL.

With `COc1cc(C=NNC(=O)c2ccccc2OC(F)(F)F)cc(OC)c1O` [7k, N′-(4-hydroxy-3,5-dimethoxybenzylidene)-2-(trifluoromethoxy)benzohydrazide], the “Tyrosinase activity (IC50 mM/mL)” value in assay [1] is listed as 29.78 ± 0.43 mM/mL. The “Anticholinesterase Activity / AChE assay” value in assay [2] amounted to 59.31 ± 0.77 μM/mL. The “Anticholinesterase Activity / BChE assay (IC50 μM/mL)” value in assay [3] was 69.18 ± 0.98 μM/mL.

As to `COc1cc(C=NNC(=O)c2ccc(F)cc2)cc(OC)c1O` [7d, 4-fluoro-N′-(4-hydroxy-3,5-dimethoxybenzylidene)benzohydrazide], the “Tyrosinase activity (IC50 mM/mL)” value in assay [1] came out at 64.38 ± 0.99 mM/mL. Further, the “Anticholinesterase Activity / AChE assay” value in assay [2] was determined as 88.37 ± 0.11 μM/mL. Further, the “Anticholinesterase Activity / BChE assay (IC50 μM/mL)” value in assay [3] is 109.44 ± 0.09 μM/mL.

On to `COc1ccc(C(=O)NN=Cc2cc(OC)c(O)c(OC)c2)cc1` [7e, N′-(4-hydroxy-3,5-dimethoxybenzylidene)-4-methoxybenzohydrazide], for which the “Tyrosinase activity (IC50 mM/mL)” value in assay [1] is 10.15 ± 0.04 mM/mL. Further, in assay [2], the “Anticholinesterase Activity / AChE assay” value stood at 75.01 ± 0.94 μM/mL. For the same compound, the “Anticholinesterase Activity / BChE assay (IC50 μM/mL)” value in assay [3] is recorded as 96.33 ± 0.61 μM/mL.

On to `COc1cc(C=NNC(=O)c2cccc(C(F)(F)F)c2)cc(OC)c1O` [7h, N′-(4-hydroxy-3,5-dimethoxybenzylidene)-3-(trifluoromethyl)benzohydrazide], for which the “Tyrosinase activity (IC50 mM/mL)” value in assay [1] was found to be 56.88 ± 0.37 mM/mL. Further, the “Anticholinesterase Activity / AChE assay” value in assay [2] is 73.75 ± 0.34 μM/mL. For the same compound, the “Anticholinesterase Activity / BChE assay (IC50 μM/mL)” value in assay [3] is recorded as 88.70 ± 0.77 μM/mL.

For the compound `COc1cc(C=NNC(=O)c2ccc(OC(F)(F)F)cc2)cc(OC)c1O` [7m, N′-(4-hydroxy-3,5-dimethoxybenzylidene)-4-(trifluoromethoxy)benzohydrazide], the “Tyrosinase activity (IC50 mM/mL)” value in assay [1] amounted to 36.62 ± 0.56 mM/mL. Further, in assay [2], the “Anticholinesterase Activity / AChE assay” value was found to be 62.04 ± 0.39 μM/mL. Besides, the “Anticholinesterase Activity / BChE assay (IC50 μM/mL)” value in assay [3] came to 77.26 ± 0.42 μM/mL.

Turning to `COc1cc(C=NNC(=O)c2ccc([N+](=O)[O-])cc2)cc(OC)c1O` [7f, N′-(4-hydroxy-3,5-dimethoxybenzylidene)-4-nitrobenzohydrazide], in assay [1], the “Tyrosinase activity (IC50 mM/mL)” value is recorded as 18.22 ± 0.35 mM/mL. For the same compound, the “Anticholinesterase Activity / AChE assay” value in assay [2] was 40.07 ± 0.25 μM/mL. For the same compound, the “Anticholinesterase Activity / BChE assay (IC50 μM/mL)” value in assay [3] stood at 52.39 ± 0.49 μM/mL.

Regarding `COc1cc(C=NNC(=O)c2cccc(OC(F)(F)F)c2)cc(OC)c1O` [7l, N′-(4-hydroxy-3,5-dimethoxybenzylidene)-3-(trifluoromethoxy)benzohydrazide], in assay [1], the “Tyrosinase activity (IC50 mM/mL)” value is 24.30 ± 0.78 mM/mL. Further, the “Anticholinesterase Activity / AChE assay” value in assay [2] is given as 68.09 ± 0.02 μM/mL. Besides, the “Anticholinesterase Activity / BChE assay (IC50 μM/mL)” value in assay [3] is on record as 80.62 ± 0.36 μM/mL.

On to `COc1cc(C=NNC(=O)c2ccccc2C(F)(F)F)cc(OC)c1O` [7g, N′-(4-hydroxy-3,5-dimethoxybenzylidene)-2-(trifluoromethyl)benzohydrazide], for which the “Tyrosinase activity (IC50 mM/mL)” value in assay [1] amounted to 61.07 ± 0.55 mM/mL. Moreover, the “Anticholinesterase Activity / AChE assay” value in assay [2] was determined as 70.13 ± 0.89 μM/mL. In assay [3], the “Anticholinesterase Activity / BChE assay (IC50 μM/mL)” value was determined as 83.08 ± 0.34 μM/mL.

(Values after publication PMC10734773, “Synthesis of benzoyl hydrazones having 4-hydroxy-3,5-dimethoxy phenyl ring, their biological activities, and molecular modeling studies on enzyme inhibition activities” (Turkish Journal of Chemistry, 2021).)
